Test results from patent US20100041760A1, “MONOARYL AMINOTETRALINES” (priority 2008, published 2010).

Columns and labels:
[1] = biological target: T1, thromboxane A2 receptor (TP) (Homo sapiens, UniProt P21731); experiment: Human Thromboxane A2 Receptor Binding Assay; settings: human platelets; 10 nM [3H]SQ29548; 1 hour, room temperature
T1 construct: using human platelets as the source of the receptor; from tissue; host or cells: human platelets (whole platelets, 5x10^7 per well)
T1 sequence (P21731 1-343): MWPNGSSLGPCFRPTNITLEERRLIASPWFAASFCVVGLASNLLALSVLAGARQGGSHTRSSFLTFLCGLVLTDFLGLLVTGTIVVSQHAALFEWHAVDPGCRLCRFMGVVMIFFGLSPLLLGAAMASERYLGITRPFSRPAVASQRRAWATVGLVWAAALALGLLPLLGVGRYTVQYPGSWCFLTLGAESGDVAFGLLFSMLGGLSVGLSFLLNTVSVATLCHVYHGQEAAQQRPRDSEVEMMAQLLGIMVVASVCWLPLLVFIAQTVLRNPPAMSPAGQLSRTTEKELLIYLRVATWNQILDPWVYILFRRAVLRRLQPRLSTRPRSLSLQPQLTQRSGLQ
Source text: The thromboxane A2 receptor (TP) plays a key role in hemostasis as its abnormality leads to bleeding disorders. To avoid the potential liability of bleeding disorders, the binding activity of certain compounds of the present invention against TP was monitored by a receptor binding assay using human platelets as the source of the receptor and [^3H]SQ29548 (generically named (5Z)-[5,6-^3H]-7-[(1S,2R,3R,4R)-3-[[2-[(phenylamino)carbonyl]hydrazinyl]methyl]-7-oxabicyclo[2.2.1]hept-2-yl]-5-heptenoic acid, from PerkinElmer Inc.) as the competing radioactive ligand.
The TP binding reactions (0.2 mL) were performed in 96-well plates at room temperature in PBS containing 5×10^7 platelets, 10 mM MgCl2, 0.06% BSA, 10 nM [^3H]SQ29548, and the test compound at various concentrations. After 1 hour of binding reactions, the platelets were harvested on GF/B filter plates (as previously described from PerkinElmer Inc.) and washed 5 times with PBS using a Filtermate™ Harvester (as previously described from PerkinElmer Inc.). The radioactivities bound to the platelets were determined using a microplate scintillation counter (TopCount® NXT, from PerkinElmer Inc.) after adding 50 μL of Microscint™ 20 scintillation fluid (from PerkinElmer Inc.) to each well of the filter plates. The radioactivity from non-specific binding was determined by replacing the compound with 10 μM of ramatroban (BAY-u3405, from Cayman Chemical Company) in the reaction mixtures. The radioactivity bound to the platelets in the absence of compound (total binding) was determined by replacing the compound with 0.25% of DMSO in the reaction mixture. Specific binding data were obtained by subtracting the radioactivity of non-specific binding from each binding data.
(§1) The IC50 value is defined as the concentration of the tested compound that is required for 50% inhibition of total specific binding. In order to calculate the IC50 value, the percent inhibition data were determined for 7 concentrations for each compound. The percent inhibition for a compound at each concentration was calculated according to the following formula, [1−(specific binding in the presence of compound)/(total specific binding)]×100. The IC50 value was then obtained by fitting the percent inhibition data to a sigmoidal dose-response (4 parameter logistic) model in the XLfit® software Excel add-in program [from ID Business Solutions Ltd., model 205, where F(x)=(A+(B−A)/(1+((C/x)̂D)))].

[2] = biological target: T2, human CRTH2 (Homo sapiens, UniProt Q9Y5Y4); experiment: Human CRTH2 Receptor Binding Assay (whole cell, [3H]ramatroban competition); design: expressed in transfected cells; host or cells: CHO-K1 (co-transfected with G-alpha16); settings: CHO-K1 cells expressing human CRTH2 and G-alpha16; 20 nM [3H]ramatroban; 1 hour, room temperature
T2 sequence (Q9Y5Y4 1-395): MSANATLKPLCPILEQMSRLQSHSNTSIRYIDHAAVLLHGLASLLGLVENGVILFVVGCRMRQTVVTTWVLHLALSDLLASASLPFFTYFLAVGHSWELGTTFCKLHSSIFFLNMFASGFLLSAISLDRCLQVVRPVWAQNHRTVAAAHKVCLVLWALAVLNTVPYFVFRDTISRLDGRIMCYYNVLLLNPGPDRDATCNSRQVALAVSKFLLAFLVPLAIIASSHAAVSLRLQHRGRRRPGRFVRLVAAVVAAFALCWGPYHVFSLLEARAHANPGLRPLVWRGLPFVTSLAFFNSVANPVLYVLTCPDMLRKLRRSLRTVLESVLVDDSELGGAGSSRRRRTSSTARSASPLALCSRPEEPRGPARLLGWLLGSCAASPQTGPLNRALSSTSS
Source text: A whole cell receptor binding assay using [^3H]ramatroban as the competing radioactive ligand was employed to evaluate the compound binding activity to human CRTH2. The radioactive ligand [^3H]ramatroban was synthesized according to Sugimoto et. al. (Eur. J. Pharmacol. 524, 30-37, 2005) to a specific activity of 42 Ci/mmol.
A cell line stably expressing human CRTH2 was established by transfecting CHO-K1 cells with two mammalian expression vectors that harbored human CRTH2 and G-alpha16 cDNAs, respectively, using FuGene® 6 transfection reagent (from Roche). Stable clones expressing CRTH2 were selected by staining each clone with BM16 (BD Pharmingen™ from BD Biosciences, a division of Becton, Dickinson and Company), which is a rat monoclonal antibody to human CRTH2. The cells were maintained as monolayer cultures in Ham's F-12 medium containing 10% fetal bovine serum, 100 units/mL penicillin, 100 μg/mL streptomycin, 2 mM glutamine, 0.5 mg/mL G418 (geneticin) for CRTH2, and 0.2 mg/mL hygromycin-B (for G-alpha 16). For whole cell receptor binding assay, the monolayer cells were rinsed once with PBS (phosphate buffered saline), dissociated using ethylenediaminetetraacetate (Versene™ EDTA from Lonza Inc.), and suspended in PBS containing 10 mM MgCl2 and 0.06% BSA (bovine serum albumin) at 1.5×10^6 cells/mL.
The binding reactions (0.2 mL) were performed in 96-well plates at room temperature in PBS containing 1.5×10^5 cells, 10 mM MgCl2, 0.06% BSA, 20 nM [^3H]ramatroban, and test compound at various concentrations. After 1 hour of binding reactions, the cells were harvested on GF™/B filter microplates (microtiter plates with embedded glass fiber from PerkinElmer, Inc.) and washed 5 times with PBS using a Filtermate™ Harvester (a cell harvester that harvests and washes cells from microplates from PerkinElmer, Inc.). The radioactivities bound to the cells were determined using a microplate scintillation counter (TopCount® NXT, from PerkinElmer, Inc.) after adding 50 μL of Microscint™ 20 scintillation fluid (from PerkinElmer, Inc.) to each well of the filter plates. The radioactivity from non-specific binding was determined by replacing compound with 10 μM of 15(R)-15-methyl PGD2 (from Cayman Chemical Company) in the reaction mixtures. The radioactivity bound to the cells in the absence of compound (total binding) was determined by replacing compound with 0.25% of DMSO (dimethyl sulfoxide) in the reaction mixture. Specific binding data were obtained by subtracting the radioactivity of non-specific binding from each binding data.
as §1

SMILES	IC50 [1]	IC50 [2]
CC(F)(F)c1cc(C(F)(F)F)cc(S(=O)(=O)N[C@@H]2CCCc3c(OCC(=O)O)cccc32)c1 [Example 10-2, {(R)-5-[3-(1,1-difluoro-ethyl)-5-trifluoromethyl-benzenesulfonylamino]-5,6,7,8-tetrahydro-naphthalen-1-yloxy}-acetic acid]	> 10000 nM	6 nM
CC1(c2cc(C(F)(F)F)cc(S(=O)(=O)N[C@@H]3CCCc4c(OCC(=O)O)cccc43)c2)CC1 [Example 10-7, {(R)-5-[3-(1-methyl-cyclopropyl)-5-trifluoromethyl-benzenesulfonylamino]-5,6,7,8-tetrahydro-naphthalen-1-yloxy}-acetic acid]	> 10000 nM	18.4 nM
COc1cc(C(F)(F)F)cc(S(=O)(=O)N(C)[C@@H]2CCCc3c(OCC(=O)O)cccc32)c1 [Example 1-4, {(R)-5-[(3-methoxy-5-trifluoromethyl-benzenesulfonyl)-methyl-amino]-5,6,7,8-tetrahydro-naphthalen-1-yloxy}-acetic acid]	> 10000 nM	110 nM
CN([C@@H]1CCCc2c(OCC(=O)O)cccc21)S(=O)(=O)c1cc(C(F)(F)F)cc(S(=O)(=O)C2CCCC2)c1 [Example 3-1, {(R)-5-[(3-cyclopentanesulfonyl-5-trifluoromethyl-benzenesulfonyl)-methyl-amino]-5,6,7,8-tetrahydro-naphthalen-1-yloxy}-acetic acid]	> 10000 nM	2.9 nM
CN([C@@H]1CCCc2c(OCC(=O)O)cccc21)S(=O)(=O)c1cc(C(F)(F)F)cc(C2(C)CC2)c1 [Example 7-1, ((R)-5-{methyl-[3-(1-methyl-cyclopropyl)-5-trifluoromethyl-benzenesulfonyl]-amino}-5,6,7,8-tetrahydro-naphthalen-1-yloxy)-acetic acid]	> 10000 nM	76.6 nM
CN([C@@H]1CCCc2c(OCC(=O)O)cccc21)S(=O)(=O)c1cc(C(C)(C)C)cc(C(C)(C)C)c1 [Example 1-2, {(R)-5-[(3,5-di-tert-butyl-benzenesulfonyl)-methyl-amino]-5,6,7,8-tetrahydro-naphthalen-1-yloxy}-acetic acid]	> 10000 nM	177 nM
CC(C)c1cc(C(F)(F)F)cc(S(=O)(=O)N(C)[C@@H]2CCCc3c(OCC(=O)O)cccc32)c1 [Example 8-1, {(R)-5-[(3-isopropyl-5-trifluoromethyl-benzenesulfonyl)-methyl-amino]-5,6,7,8-tetrahydro-naphthalen-1-yloxy}-acetic acid]	> 10000 nM	91.2 nM
CC(=O)c1cc(C(F)(F)F)cc(S(=O)(=O)N(C)[C@@H]2CCCc3c(OCC(=O)O)cccc32)c1 [Example 6-1, {(R)-5-[(3-acetyl-5-trifluoromethyl-benzenesulfonyl)-methyl-amino]-5,6,7,8-tetrahydro-naphthalen-1-yloxy}-acetic acid]	> 10000 nM	78.2 nM
CN([C@@H]1CCCc2c(OCC(=O)O)cccc21)S(=O)(=O)c1cc(Br)cc(C(F)(F)F)c1 [Example 1-5, {(R)-5-[(3-bromo-5-trifluoromethyl-benzenesulfonyl)-methyl-amino]-5,6,7,8-tetrahydro-naphthalen-1-yloxy}-acetic acid]	> 10000 nM	74.2 nM
CS(=O)(=O)c1cc(S(C)(=O)=O)cc(S(=O)(=O)N[C@@H]2CCCc3c(OCC(=O)O)cccc32)c1 [Example 10-9, [(R)-5-(3,5-bis-methanesulfonyl-benzenesulfonylamino)-5,6,7,8-tetrahydro-naphthalen-1-yloxy]-acetic acid]	> 10000 nM	9 nM
